The results in this text go back to patent publication US5178873A, “Essential fatty acid treatment” (Efamol Holdings PLC, priority 1990, dated 1993).

The test system of one assay is human epidermal PLA2. In words: inhibition of human epidermal PLA2 activity by fatty acids (1-palmitoyl 2-1-^14 C. palmitoyl phosphatidyl choline substrate). It counts as biochemical. The note with it: for IC50: purified human epidermal enzyme, standard assay with 1-palmitoyl 2-1-^14 C. palmitoyl phosphatidyl choline; for ability to inhibit PLA2, ranking among fatty acids tested: PLA2 isolated from human skin, stated for both test systems. The method, then:
(§1) In the experimental work on which the above discussion is based, epidermal PLA2 was prepared from isolated mouse or human epidermal cells by detergent solubilisation, ion exchange chromatography and gel filtration. Both enzymes had molecular weights in the region of 68,000, a pH optimum around 9.0 and an absolute requirement for calcium ions. Phospholipids were prepared as both unilamellar vesicles and detergent micelles. PLA2 activity was readily detected using these substrates, with no apparent preference for polar head group. For the standard assay, 1-palmitoyl 2-1-^14 C. palmitoyl phosphatidyl choline was used. The reaction was initiated by the addition of purified enzyme and terminated by the addition of chloroform/methanol/acetic acid (3:4:1). The free fatty acid was extracted, separated by thin layer chromatography and quantified by scintillation counting. Ranges of concentrations of various fatty acids were added to the reaction mixture to assess their ability to inhibit PLA2. Dose response curves were constructed and the IC50 value (the concentration of fatty acid required to inhibit enzyme activity by 50%) was estimated. Similar experiments were performed using macrophages isolated from rat peritoneal cavity by lavage.

In the next assay the test system is rat macrophage PLA2. In words: inhibition of rat macrophage PLA2 activity by fatty acids. In kind it is biochemical. The note with it: for IC50: macrophages isolated from rat peritoneal cavity by lavage; for ability to inhibit PLA2, ranking among fatty acids tested: PLA2 from rat macrophages, stated for both test systems. The method, then: as §1

In the assay with human epidermal PLA2, `CCCCC/C=C\C/C=C\CCCCCCCC(=O)O` [18:2 cis 9,12-octadecadienoic (linoleic), delta-9,12-octadecadienoic acid] displayed an IC50 of 85 ± 5 µM.

In the case of `CCCCC/C=C\C/C=C\C/C=C\CCCCCCC(=O)O` [cis 8,11,14-eicosatrienoic], the IC50 was 61 ± 5 µM with human epidermal PLA2 and 71 ± 11 µM in the assay with rat macrophage PLA2.

In the case of `CCCCCCCCCCC/C=C\CCCCC(=O)O` [18:1 cis 6-octadecenoic, cis 6-octadecenoic], the IC50 with human epidermal PLA2 and in the assay on rat macrophage PLA2 was over 100 µM each time.

Regarding `CC/C=C\C/C=C\C/C=C\C/C=C\CCCCC(=O)O` [delta-6,9,12,15-octadecatetraenoic acid], in the assay with human epidermal PLA2, the “ability to inhibit PLA2, ranking among fatty acids tested” value (“ability to inhibit PLA2” for short) is “the most potent of all the fatty acids tested” and the IC50 was determined as 37 ± 3 µM. In addition, in the assay with rat macrophage PLA2, the “ability to inhibit PLA2” value is “the most potent of all the fatty acids tested” and it took 52 ± 8 µM to reach half-maximal inhibition (IC50).

As for `CC/C=C\C/C=C\C/C=C\CCCCCCCC(=O)O` [cis 9,12,15-octadecatrienoic], the IC50 with human epidermal PLA2 was determined as 45 ± 6 µM; with rat macrophage PLA2, 75 ± 9 µM.

The molecule `CCCCC/C=C\C/C=C\C/C=C\CCCCC(=O)O` [cis 6,9,12-octadecatrienoic] gave an IC50 in the assay on human epidermal PLA2 of 52 ± 3 µM.

Take `CCCCC/C=C\C/C=C\C/C=C\C/C=C\CCCC(=O)O` [20:4 cis 5,8,11,14-eicosatetraenoic (AA), cis 5,8,11,14-eicosatetraenoic]: the “ability to inhibit PLA2” value in the assay on human epidermal PLA2 and with rat macrophage PLA2 was “closest to SA in its ability to inhibit PLA2” throughout. In addition, the figures for the IC50 in the assay on human epidermal PLA2 and with rat macrophage PLA2 were 45 ± 8 µM and 65 ± 8 µM, respectively.

As to `CC/C=C\C/C=C\C/C=C\C/C=C\C/C=C\CCCC(=O)O` [cis 5,8,11,14,17-eicosapentaenoic], the 50% inhibitory concentration (IC50) in the assay on human epidermal PLA2 was 58 ± 4 µM.

`CCCCC/C=C\C/C=C\CCCCCCCCCC(=O)O` [20:2 cis 11,14-eicosadienoic, cis 11,14-eicosadienoic] had an IC50 with human epidermal PLA2 of 87 ± 6 µM.

As for `CCCCCCCC/C=C\CCCCCCCCCC(=O)O` [20:1 cis 11-eicosenoic, cis 11-eicosenoic], the concentration for half-maximal inhibition (IC50) in the assay with human epidermal PLA2 and in the assay on rat macrophage PLA2 was over 100 µM in each case.

For orientation: IC50 means the concentration that inhibits the measured activity by half. A lower IC50 goes with greater potency.
